Four molecules from patent publication US20240368159A1, “HPK1 DEGRADERS, COMPOSITIONS COMPRISING THE HPK1 DEGRADER, AND METHODS OF USING THE SAME” (BIOFRONT LTD, priority 2021, published 2024) can be followed below.

Assay [1] concerns IL-2 production in primary mouse CD3+ T cells. As to the kind of experiment: Cytokine measurement: IL-2 production in mouse CD3+ T cells (ELISA). The assay is classed as cell-based. The following applies: T-cell, plate bound anti-CD3, 40 hrs; for fold induction at 1 µM: 1 uM compound, read-out: IL-2 production Fold change (1 uM); for fold induction at 3 µM: 3 uM compound, read-out: IL-2 production Fold change (3 uM). How it is done:
Anti-CD3 Ab was used to provide signal 1 to stimulate mouse CD3+ T cells. Effect of compound stimulation on T cells was measure by IL2 ELISA. Briefly, anti-CD3 Ab was coated onto plates overnight. Isolated T cells from mouse splenocytes were incubated with plate bound CD3 in the presence and absence of compound for 40 hrs. After incubation, the supernatant was collected and IL2 level in the supernatant was determined by mouse IL2 ELISA kit.
In general terms: An ELISA detects its analyte on a solid surface through an enzyme-linked reagent.

For another assay, the system named is HPK1 p-SLP-76. In words: HPK1 p-SLP-76 inhibition assay in human PBMC (HTRF). The class given is cell-based. The following applies: 6 h compound, anti-CD3 stimulation 20 min. The gist of the method:
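Human PBMC starved overnight in 0.5% FBS, treated with compound 6 h at 37° C, then stimulated with anti-CD3 (10 ug/mL final) for 20 min. Lysates analysed for phospho-SLP76 by HTRF after overnight detection-antibody incubation at 25° C.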

The target in the next assay is T1, HPK1 protein (Homo sapiens, UniProt Q92918).
T1 construct: purchased Signal Chem M23-11G-10
T1 sequence (Q92918 1-346 limits assumed): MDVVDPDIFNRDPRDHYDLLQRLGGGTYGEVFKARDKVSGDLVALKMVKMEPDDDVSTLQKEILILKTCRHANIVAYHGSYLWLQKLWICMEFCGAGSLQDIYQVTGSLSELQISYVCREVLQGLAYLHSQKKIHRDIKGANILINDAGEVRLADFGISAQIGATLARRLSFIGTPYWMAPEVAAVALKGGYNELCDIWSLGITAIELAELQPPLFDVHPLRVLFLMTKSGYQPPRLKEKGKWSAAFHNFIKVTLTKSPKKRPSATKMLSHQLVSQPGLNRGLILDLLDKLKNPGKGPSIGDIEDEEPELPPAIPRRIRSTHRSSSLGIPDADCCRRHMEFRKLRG
In words: HPK1 enzyme inhibition assay (ADP-Glo). The assay is classed as biochemical. The following applies: MBP substrate, ATP, ADP-Glo readout. The gist of the method:
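Recombinant human HPK1 preincubated with compound 60 min at 25 °C, then reaction with MBP (0.2 ug/ul, 2× stock) and ATP (20 μM, 2× stock) 60 min at 25 °C. ADP formed detected by ADP-Glo after ATP depletion and conversion to ATP; IC50 calculated from signal.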

Bounds are passed on as bounds.

Regarding `O=C1CCC(N2Cc3cc(N4CCN(CCCS(=O)(=O)N5CCN(c6cccc(-c7cnc8[nH]cc(C9CC9)c8c7Cl)c6)C(=O)C5)CC4)ccc3C2=O)C(=O)N1` (stereo not drawn) [Example 103, 3-(5-(4-(3-((4-(3-(4-chloro-3-cyclopropyl-1H-pyrrolo[2,3-b]pyridin-5-yl)phenyl)-3-oxopiperazin-1-yl)sulfonyl)propyl)piperazin-1-yl)-1-oxoisoindolin-2-yl)piperidine-2,6-dione], in assay [1], the fold induction at 1 µM was 2.1 and the fold induction at 3 µM worked out at 2.8. Moreover, the IC50 (usually the concentration that inhibits the measured activity by half) in the assay with HPK1 p-SLP-76 was at most 300 nM. On HPK1 protein, this molecule yielded an IC50 of at most 10 nM.

With `O=C1CCC(N2C(=O)c3ccc(OCCC4CN(C(=O)N5CCN(c6cccc(-c7cnc8[nH]cc(C9CC9)c8c7Cl)c6)C(=O)C5)C4)cc3C2=O)C(=O)N1` (stereo not drawn) [Example 95, 5-(2-(1-(4-(3-(4-chloro-3-cyclopropyl-1H-pyrrolo[2,3-b]pyridin-5-yl)phenyl)-3-oxopiperazine-1-carbonyl)azetidin-3-yl)ethoxy)-2-(2,6-dioxopiperidin-3-yl)isoindoline-1,3-dione], in assay [1], the fold induction at 1 µM was found to be 1.8 and the fold induction at 3 µM is 2.7. In addition, the IC50 against HPK1 protein was 10 to 100 nM.

With `O=C1CCC(N2C(=O)c3ccc(N4CCC(COC(=O)N5CCN(c6cccc(-c7cnc8[nH]cc(C9CC9)c8c7Cl)c6)C(=O)C5)CC4)cc3C2=O)C(=O)N1` (stereo not drawn) [Example 88], in assay [1], the fold induction at 1 µM was 2.3 and the fold induction at 3 µM amounted to 2.4. This molecule also returned an IC50 in the assay with HPK1 p-SLP-76 of over 10000 nM. On HPK1 protein, this molecule gave an IC50 of 10 to 100 nM.

For `O=C1CCC(c2ccc(C3CCN(CCCS(=O)(=O)N4CCN(c5cccc(-c6cnc7[nH]cc(C8CC8)c7c6Cl)c5)C(=O)C4)CC3)cc2)C(=O)N1` (stereo not drawn) [Example 102, 3-(4-(1-(3-((4-(3-(4-chloro-3-cyclopropyl-1H-pyrrolo[2,3-b]pyridin-5-yl)phenyl)-3-oxopiperazin-1-yl)sulfonyl)propyl)piperidin-4-yl)phenyl)piperidine-2,6-dione], the fold induction at 1 µM in assay [1] came out at 2.9. Further, in assay [1], the fold induction at 3 µM was determined as 2.6. In addition, the IC50 in the assay with HPK1 p-SLP-76 is 300 to 3000 nM; on HPK1 protein it was at most 10 nM.
